Earlier results as cited in patent US5565431A, “Cancer cell inhibitors and method” (priority 1994, dated 1996).

Legend:
[1] = tested on: normal colonic mucosa cells; details: Garcia et al. (9)
[2] = tested on: seven colon cancer cell lines; details: Garcia et al. (9)

CO[C@H]1[C@@H](OC)C[C@H](C)[C@@H](OC)C2=CC(=O)C=C(NC(=O)/C(C)=C/C=C\[C@H](OC)[C@@H](OC(N)=O)/C(C)=C/[C@@H]1C)C2=O [herbimycin A]
Inhibition of normal colonic mucosa cells [1]: 12% | Inhibition of seven colon cancer cell lines [2]: greater than 40%
